Assays:
[1] = test system: Capan-1 GR; test: Effect of gemcitabine on gemcitabine-resistant cell lines (RTCA); type: cell-based, human; conditions: 1.6 uM and 3.2 uM; without medium change or with medium change at 1 h or 3 h; compared to parental cell line
Description: (§1) Gemcitabine-based therapy is currently the standard first-line therapy for patients with advanced PDAC. However, tumor recurrence after gemcitabine treatment may lead to short patient survival (Jia Y, Gu D, Wan J, et al. The role of GLI-SOX2 signaling axis for gemcitabine resistance in pancreatic cancer. Oncogene 2019; 38 (10): 1764-77. doi: 10.1038/s41388-018-0553-0 [published Online First: 2018 Oct. 31]). Therefore, it is critical to verify whether […] cells are effective in killing gemcitabine-resistant tumors in vitro and in vivo. In this case, we established two gemcitabine-resistant (GR) cell lines (Capan-1 GR and MIA Paca-2 GR) by exposing parental Capan-1 and MIA Paca-2 cells to increasing concentrations of gemcitabine for 9 months. […] Compared to the parental cell lines, Capan-1 GR and MIA Paca-2 GR were not killed by gemcitabine at concentrations of 1.6 uM and 3.2 uM, either without medium change or with medium change at 1 h or 3 h (FIG. 6B, FIGS. 10 and 11). We explored the anti-PC effect of […] cells targeting Capan-1 GR and MIA Paca-2 GR cells in vitro. […] We also measured the levels of CD25, CD69, CD107a, TNF-α, and IFN-γ expression of […] cells after co-incubation with GR cells and the parental cells. […] Next, we evaluated the therapeutic effect of […] cells against Capan-1 GR cells in vivo. The parental Capan-1 cells were injected as control.

[2] = test system: MIA Paca-2 GR; test: as above; type: cell-based, human; conditions: 1.6 uM and 3.2 uM; without medium change or with medium change at 1 h or 3 h; compared to parental cell line
Description: as §1

Nc1ccn([C@@H]2O[C@H](CO)[C@@H](O)C2(F)F)c(=O)n1 [gemcitabine, 2′,2′-difluorodeoxycytidine]
killing by gemcitabine (RTCA) [1]: not killed | killing by gemcitabine (RTCA) [2]: not killed
